# Legend:
# [1] = after entering the systemic circulation; cited from earlier work
# IL-17 = assay: Psoriasis experiment (imiquimod model): inflammatory cytokine in serum (ELISA); type: in vivo, mice; details: for level of IL-17 / inflammatory cytokines in psoriasis model mice: compared with the model group; for IL-17: serum, day 8 of modeling, 0.2 g cream per mouse daily for 7 days
# Experimental: (§10) Positive control drug: Fluticasone Propionate Cream (specification: 0.05% × 15 g, Zhejiang Xianju Pharmaceutical Co. Ltd., Lot No. 211106), stored at room temperature protected from light until use.
# (§11) Adult mice were selected, and the skin of 2 cm × 3 cm on the back of mice was locally depilated. The mice in the model group and drug administration group were applied with 62.5 mg of 5% imiquimod cream on their back for modeling, while the mice in the blank control group were applied with medical petroleum jelly on their back daily. The above procedures were performed once a day for 7 consecutive days.
# (§12) The mice in the drug administration group were applied with the corresponding drugs on their backs daily at a dose of 0.2 g per mouse, while the blank control group and the model group were only applied with 0.2 g of the test sample drug matrix. One hour after drug administration, the drugs were wiped off with sterile cotton swabs, followed by the application of imiquimod. The above procedures were performed once a day for 7 consecutive days.
# After the PASI scoring on day 8 of modeling, blood was collected from the orbital sinus of mice and centrifuged at 3000 rpm for 10 min. The supernatant was extracted to measure the level of IL-17. All procedures were performed following the instructions of the ELISA kit.
# (§13) Statistical analysis was performed using SPSS software, and the results were expressed as mean ± standard deviation. One-way ANOVA was used for intergroup comparisons. For data with homogeneous variance, the LSD test was used; for data with heterogeneous variance, the Dunnett-t test was used. A value of P < 0.05 was considered statistically significant.
# psoriasis model mice = assay: Psoriasis experiment (imiquimod model): skin lesion (PASI) score; type: in vivo; details: for PASI scores: compared with the model group; for PASI score: day 8 of modeling, 0.2 g cream per mouse daily for 7 days (compounds 1 mg/g, fluticasone propionate 0.5 mg/g)
# Experimental: as §10, §11, §12
# Referring to the clinical Psoriasis Area and Severity Index (PASI) scoring criteria, erythema, scaling, and thickness at the skin lesion sites were evaluated on a 0-4 scale on day 8 of modeling, and the total score was obtained by summing the three items.
# • (1) Erythema: a score of 0 points indicates no erythema, a score of 1 point indicates erythema appearing light red, a score of 2 points indicates erythema appearing red, a score of 3 points indicates erythema appearing dark red, and a score of 4 points indicates erythema appearing extremely deep red; • (2) Scaling: a score of 0 points indicates no scaling on the surface, a score of 1 point indicates partial skin lesions covered with scaling, a score of 2 points indicates most skin lesions covered with scaling, a score of 3 points indicates almost all skin lesions covered with scaling in layers, and a score of 4 points indicates all skin lesions covered with scaling; • (3) Thickness: a score of 0 points indicates skin lesions flush with normal skin, a score of 1 point indicates skin lesions slightly elevated above normal skin surface, a score of 2 points indicates moderate elevation of skin lesions, a score of 3 points indicates thickened skin lesions with obvious elevation, and a score of 4 points indicates highly thickened skin lesions with prominent elevation.
# as §13
# [2] = Determination of stability in plasma in vitro, human plasma (LC-MS/MS); type: in vitro ADME; details: human, human plasma, 1 µM, 37 °C; read-out: Half-life T1/2 (min) in plasma of different species, Human plasma
# Experimental: (§1) Pharmacological Example 3: Determination of Stability in Plasma in Vitro
# (§2) The stock solution was diluted with acetonitrile to obtain a working solution at a concentration of 100 µ M. The solution should be freshly prepared prior to use and maintained at room temperature during application.
# (§3) 990 µ L of human and mouse plasma (N = 2) were separately pipetted and pre-incubated at 37 °C for 5 min. Then, 10 µ L of the test compound working solution was added and vortexed thoroughly (the final concentration of the test compound was 1 µ M). Immediately, 50 µ L of the plasma sample was added to 150 µ L of ice-cold precipitation agent containing the internal standard and vortexed thoroughly as the 0-time sample. The remaining plasma sample was continuously incubated at 37 °C, and 50 µ L of the plasma sample was aspirated and added to 150 µ L of ice-cold precipitation agent containing the internal standard at preset sampling time points, followed by thorough vortexing. The collected samples were stored in a freezer at -60 to -90 °C until analysis.
# (§4) The concentration of the test compound was determined by LC-MS/MS, and its degradation was monitored. (semi-quantitative determination was conducted by comparing the peak area of the analyte to that of the internal standard).
# [3] = tested on: inflammatory cytokines IL-6 and IL-12; assay: Anti-asthma pharmacodynamic experiment: inflammatory cytokines in bronchoalveolar lavage fluid (ELISA); type: in vivo, female BALB/c mice
# Experimental: Pharmacological Example 4: Pharmacodynamic Experiment on Anti-Asthma
# The suspensions were stored at room temperature protected from light until use.
# Positive control drug: Budesonide Suspension for Inhalation (specification: 2 mL: 1 mg; AstraZeneca Inc.; Lot No. : 327392) was diluted with injection-grade sodium chloride solution to 0.3 mg/ml as the positive control drug, and stored at room temperature protected from light until use.
# Sixty female BALB/c mice underwent a one-week adaptive feeding period. Ten mice were randomly selected as the blank control group, while 50 mice were selected to establish asthma models.
# From days 21 to 23 after sensitization, the mice in the model group and drug administration group were exposed to a 30-minute aerosol challenge with 5% OVA, while the mice in the blank control group were exposed to normal saline aerosol for the same duration.
# At the end of airway hyperresponsiveness testing in mice, the mice were euthanized by cervical dislocation and fixed on a dissection tray. The abdomens and thoracic cavities of the mice were opened, and the skin and excess tissues of the neck were excised to expose the trachea of the mice. A small incision was made transversely on the trachea with a small scissors. A pre-treated 1 mL syringe needle was inserted and fastened with surgical thread. A 1 mL syringe was used to slowly inject 0.5 mL of pre-chilled phosphate-buffered saline (PBS) into the lungs of the mice, followed by slow aspiration. Each mouse was lavaged once, and a total of approximately 0.4 ml of lavage fluid was collected. The bronchoalveolar lavage fluid was centrifuged at 3000 rpm for 5 min. After centrifugation, the supernatant was aliquoted, and the levels of inflammatory cytokines IL-6 and IL-12 in the bronchoalveolar lavage fluid were determined using ELISA kits.
# Statistical analysis was performed using SPSS software. Measurement data were expressed as mean ± standard deviation. One-way ANOVA was used for intergroup comparisons. For data with homogeneous variance, LSD test was used; for data with heterogeneous variance, Dunnett-t test was used. A value of P < 0.05 was considered statistically significant.
# [4] = molecular target: T1, mineralocorticoid receptor (MR) (Homo sapiens, UniProt P08235); assay: Assay for agonist activity on mineralocorticoid receptor (luciferase reporter, HEK293 cells transfected with pBIND-MR plasmid); type: cell-based
# T1 sequence (P08235 726-984): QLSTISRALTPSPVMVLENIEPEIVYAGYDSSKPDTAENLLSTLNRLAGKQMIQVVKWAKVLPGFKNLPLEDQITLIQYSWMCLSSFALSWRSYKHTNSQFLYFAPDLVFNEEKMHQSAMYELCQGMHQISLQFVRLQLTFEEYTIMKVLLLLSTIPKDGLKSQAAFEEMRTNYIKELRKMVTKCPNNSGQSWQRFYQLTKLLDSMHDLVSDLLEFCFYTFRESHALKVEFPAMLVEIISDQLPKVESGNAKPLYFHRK
# Experimental: (§5) Pharmacological Example 2: Assay for Agonist Activity on Mineralocorticoid Receptor (MR) and Progesterone Receptor (PR)
# (§6) Test compound stock solutions: The test compounds (compounds 4, 5, 7, 8, 9, 11, 13, 16, 17, 18, 22, 23, 24, 34, 35, 36, 38, 41, 45, 47, 53, 55, and 59) were accurately weighed, dissolved in DMSO to prepare stock solutions at a concentration of 20 mM, and stored at -20 °C.
# (§7) The test compounds were subjected to a 4-fold serial dilution starting from an initial concentration of 50 µ M, generating a 12-point concentration gradient with duplicate wells for each concentration. The blank control consisted of 0.1% DMSO.
# (§8) The HEK293 stable cell lines […] transfected with mineralocorticoid receptor (MR) and progesterone receptor (PR) (ICE Bioscience, Lot No. TYP-20220819, TPJ-20220812) were cultured in Dulbecco's Modified Eagle Medium (DMEM) supplemented with 10% fetal bovine serum (FBS) and 200 µ g/ml Hygromycin B in a cell incubator containing 5% CO2 at 37 °C. The spent medium was aspirated, and the cells were washed once with phosphate-buffered saline (PBS). Then, 1 mL of TrypLE™ Express solution was added, and the cells were incubated at 37 °C for approximately 2 min. When the cells detached from the bottom of the cell culture dish, approximately 5 mL of pre-warmed complete medium at 37 °C was added. The cell suspension was gently pipetted with a pipette to dissociate clumped cells. The cell suspension was transferred to a sterile centrifuge tube and centrifuged at 1000 rpm for 5 min to pellet the cells for experiments or subculture..
# (§9) HEK293 cells were digested and seeded into 6-cm culture dishes. The pBIND-MR and pBIND-PR plasmids were separately transfected into the HEK293 cells using a transfection reagent, resulting in HEK293 cells successfully transfected with the pBIND-MR and pBIND-PR plasmids, respectively. The cells were resuspended in phenol red-free DMEM medium containing 5% charcoal-stripped serum, counted, and then seeded into 96-well plates. The test compounds were added, and the plates were then incubated in an incubator. The luminescence signal values were measured using a multimode microplate reader following the instructions of the luciferase assay kit. The EC50 values of each test compound were calculated using the nonlinear fitting formula with GraphPad Prism 8.0 software.
# [5] = Pharmacokinetic (PK) experiment in rats; type: in vivo, male SD rats; details: male, SD, rat, plasma, single
# Experimental: Pharmacological Example 11. Pharmacokinetic (PK) Experiment in Rats
# The solution was prepared before administration.
# Animals: 6 male SD rats, SPF grade (Beijing Vital River Laboratory Animal Technology Co., Ltd.).
# Animal grouping: The animals were weighed prior to administration, and the dosage was calculated based on body weight. The animals in the oral administration group were fasted overnight (10-14 hours) before administration, and food was reintroduced 4 hours post-administration. Table 23. Animal grouping and drug administration dosages for pharmacokinetic (PK) experiment in rats
# Blood collection time points: Blood was collected from the jugular vein at 2 min, 5 min, 15 min, 30 min, 1 h, 2 h, 4 h, 8 h, and 24 h after administration. Approximately 0.25 mL of blood was collected for each sample, anticoagulated with heparin sodium, and then placed on ice immediately.
# Plasma sample processing: Blood samples were placed on ice after collection and centrifuged to separate plasma within 1 hour (centrifugation conditions: 6000 rpm, 3 minutes, 2-8 °C ). Plasma samples were stored in a -80°C freezer before analysis.
# Data processing: Pharmacokinetic parameters were calculated using Phoenix WinNonlin 8.2.0 based on the plasma drug concentration data at different time points.
# asthma model mice = assay: Anti-asthma pharmacodynamic experiment: airway hyperresponsiveness (Penh) after methacholine challenge; type: in vivo, female BALB/c mice
# [6] = molecular target: T2, progesterone receptor (PR) (Homo sapiens, UniProt P06401); assay: Assay for agonist activity on progesterone receptor (luciferase reporter, HEK293 cells transfected with pBIND-PR plasmid); type: cell-based
# T2 sequence (P06401 678-933): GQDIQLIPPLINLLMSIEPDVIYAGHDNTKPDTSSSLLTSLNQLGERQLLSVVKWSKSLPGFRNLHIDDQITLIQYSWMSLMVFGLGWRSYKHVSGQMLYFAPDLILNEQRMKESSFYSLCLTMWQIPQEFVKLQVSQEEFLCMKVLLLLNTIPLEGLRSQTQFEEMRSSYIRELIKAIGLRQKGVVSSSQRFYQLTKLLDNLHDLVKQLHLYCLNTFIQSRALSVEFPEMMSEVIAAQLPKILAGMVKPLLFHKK
# Experimental: as §5, §6, §7, §8, §9
# [7] = Determination of stability in plasma in vitro, mouse plasma (LC-MS/MS); type: in vitro ADME; details: 37 °C, read-out: Half-life T1/2 (min) in plasma of different species, Mouse plasma
# Experimental: as §1, §2, §3, §4
# [8] = Stability in animal lung tissue homogenate, skin tissue homogenate and aqueous humor; type: in vitro ADME
# [9] = bronchoalveolar lavage fluid, 0.3 mg/mL, 50 µL intratracheally once daily for 3 days
smiles,measurement,setting,value
"CCC(=O)O[C@]1(C(=O)SCF)[C@H](C)C[C@H]2[C@@H]3C[C@H](F)C4=CC(=O)C=C[C@]4(C)[C@@]3(F)[C@@H](O)C[C@@]21C [Fluticasone propionate, reference compound]",plasma half-life in the human body,[1],3 h
same,level of IL-17 / inflammatory cytokines in psoriasis model mice,IL-17,significantly decreased the level of IL-17
same,IL-17,IL-17,25.04 ± 10.02 pg/mL
same,PASI scores,psoriasis model mice,PASI scores significantly decreased on day 7
same,PASI score,psoriasis model mice,4.0 ± 0.6
"C[C@]12C=CC(=O)C=C1[C@@H](F)C[C@H]1[C@@H]3C[C@H]4OC(c5ccc(CSC6CCOC6=O)cc5)O[C@@]4(C(=O)CO)[C@@]3(C)C[C@H](O)[C@@]12F (stereo partly drawn) [Compound 8, (2S,6aS,6bR,7S,8aS,8bS,11aR,12aS,12bS)-2,6b-Difluoro-7-hydroxy-8b-(2-hydroxyacetyl)-6a,8a-dimethyl-10-(4-(((2-oxotetrahydrofuran-3-yl)thio)methyl)phenyl)-1,2,6a,6b,7,8,8a,8b,11a,12,12a, 12b-dodecahydro-4H-naphtho[2',1':4,5]indeno[1,2-d][1,3]dioxol-4-one]",half-life at 1 µM,[2],< 30 min
same,IL-6,[3]; [9],19.9 ± 5.3 pg/mL
same,IL-12,[3]; [9],20.1 ± 7.1 pg/mL
same,Effects on inflammatory cytokines in bronchoalveolar lavage fluid of mice,[3]; compared with the model group,extremely significantly decreased the levels of IL-6 and IL-12 in mice
same,EC50,[4],> 50 µM
same,AUC(0-t),"[5]; iv, 2 mg/kg",106 ± 35.9 ng·h/mL
same,half-life,"[5]; iv, 2 mg/kg",< 0.5 h
same,AUC(0-t),"[5]; po, 10 mg/kg, gavage",< 70 ng·h/mL
same,half-life,"[5]; po, 10 mg/kg, gavage",5.21 ± 3.17 h
same,Cmax,"[5]; IV, 2 mg/kg",924 ± 504 ng/mL
same,Cmax,"[5]; PO, 10 mg/kg, gavage",23.5 ± 14.4 ng/mL
same,level of IL-17 / inflammatory cytokines in psoriasis model mice,IL-17,significantly decreased the level of IL-17
same,IL-17,IL-17,53.35 ± 64.19 pg/mL
same,"Penh values in mice, Methacholine concentration (mg/ml) 0","asthma model mice; 0.3 mg/mL, 50 µL intratracheally once daily for 3 days, methacholine 0 mg/ml",1.17 ± 0.23
same,"Penh values in mice, Methacholine concentration (mg/ml) 6.25","asthma model mice; 0.3 mg/mL, 50 µL intratracheally once daily for 3 days, methacholine 6.25 mg/ml",1.78 ± 0.46
same,"Penh values in mice, Methacholine concentration (mg/ml) 12.5","asthma model mice; 0.3 mg/mL, 50 µL intratracheally once daily for 3 days, methacholine 12.5 mg/ml",2.07 ± 0.66
same,Effects on airway hyperresponsiveness (Penh values) in mice,asthma model mice; compared with the model group,significantly decreased the Penh values in mice
same,EC50,[6],> 50 µM
same,half-life at 1 µM,[7],< 30 min
same,"stability in animal lung tissue homogenate, skin tissue homogenate, and aqueous humor",[8],relatively stable
same,PASI scores,psoriasis model mice,PASI scores significantly decreased on day 7
same,PASI score,psoriasis model mice,4.8 ± 1.3
